Results from US6218378A, “Anti-tumor agents comprising pyridyl-substituted metal-diphosphine complex” (priority 1994, dated 2001).

Tests used:
[1] = system: P388 leukaemia; details: i.p. P388 leukaemia; Berners-Price et al. 1990; cited from earlier work
[2] = system: 41M, 41M-cisR, SKOV-3, CH1, CH1-cisR; assay: growth inhibition of cisplatin-sensitive and -resistant ovarian cancer cell lines (Table 2, FIG. 5); type: cell-based, human
Excerpt: (§1) The sensitive CH1 cell line was established from a patient with drug-sensitive disease and its resistant variant (CH1-cisR) was generated by prolonged in vitro exposure to cisplatin during which it acquired more efficient DNA repair as described in Kelland et al., 1992, Cancer Research 52 3857-3864. The sensitive 41M cell line was also established from a patient with a sensitive tumor and its resistant variant (41M-cisR) was generated in the same way but acquired decreased uptake across the cell membrane (Kelland et al., 1992, supra). The intrinsically-resistant SKOV-3 ovarian carcinoma cell line has high glutathione levels as described in Mistry et al., 1991, Brit. J. Cancer 64 215-220 and reduced levels of bi-functional cisplatin-DNA lesions as described in McKeage et al., 1994, Brit. J. Cancer 69 1-7. The characteristics of the cell line pairs CH1/CH1 cisR, 41M/41McisR and 41M/SKOV3 are described in Table 3.
The cytotoxicity assay used sulforhodamine B which stains the basic amino acids. Cells (5000 or 2500 for SKOV-3) were seeded into 96 well microtitre plates (Linbro, Flow Laboratories Inc., USA) in 0.1 ml of medium. After an overnight incubation, the metal phosphine compounds were dissolved in 0.9% NaCl or ethanol and diluted with medium, were added at concentrations ranging from 0.005 to 50 μM to quadruplicate wells. After 96 hrs incubation, the medium was removed and cells were fixed in 0.2 ml of cold 10% (w/v) trichloroacetic acid (May & Baker Ltd., Dagenham, England) for 30 mins at 4° C. The plates were washed five times with tap water. Then 0.1 ml of 0.4% (w/v) sulforhodamine B (Sigma Chemical Co., St. Louis, USA) dissolved in 1% acetic acid (Ajax Chemicals, Australia) was added to the wells and left to stand at room temperature for 15 mins. The plates were then washed five times with 1% acetic acid and left to dry overnight. The next morning, 0.1 ml of 10 mM Tris buffer (Sigma Chemical Co., St. Louis, USA) was then added to each plate to solubilise the dye. Absorbance was read at a wavelength of 570 nm using a 96 well plate reader Dynatech MR 5000 plate reader. Absorbance of treatment cells was expressed as a percentage of positive (drug-free) controls. The results were plotted as percentage growth versus drug concentration. The drug concentration resulting in a 50% growth inhibition was termed the IC50. The passage numbers used for the cytotoxicity assay from each cell line were, CH1 passages 50-58, CH1 cis-R passages 77-83, 41M passages 50-63, 41M cisR 81-92 and SKOV-3 passages 106-128.

[3] = system: M5076 Reticulum Cell Sarcoma; details: Berners-Price et al. 1990; cited from earlier work
[4] = system: human tumour cell lines; assay: selectivity of cytotoxicity over all cell lines evaluated (Tables 1 and 2); type: cell-based
Excerpt: The origins of the human melanoma cell line MM96 has been described in Whitehead et al., 1973, Pigment Cell 1 383-389. The cell line JAM is described in Ward et al., 1987, Cancer Res. 47 2662-2667. The origin of the ovarian tumour line CI-80-13S has been described in Bertoncello et al., 1985, Aust. J. Exp. Biol. Med. Sci. 63 241-243. The origin of the cervical carcinoma cell line HeLa has been described in Maynard et al., 1986, Cancer Res. 46 5009-5093. The subclone HeLa-S1a was derived by stably transfecting HeLa with PAI-2 cDNA described in Schleuning et al., 1987, Mol. Cell. Biol. 7 4564-4567 in the sense orientation under the control of the cyto-megalovirus (CMV) promoter. The stably infected subclone was isolated following G418 selection and expression of the PAI-2 transgene characterised by immunoblot analysis and quantitated by ELISA. All of these cell lines have been used before for carrying out cell survival assays referred to in FIGS. 1-4. Cells were cultured at 37° in 5% CO2 /air in Roswell Park Memorial Institute medium 1640 containing 5% foetal calf serum, 100 μg/ml streptomycin, 100 IU/ml penicillin, 1 mM pyruvate, 50 μM nicotinamide and 3 mM HEPES.
Cells were seeded in microtitre plates (lowest number for fastest growing cells: 1000 HeLa, 2000 MM96, […] CI-80-13S cells per 6 mm well in 100 μl), normally but not necessarily allowed to attach overnight, then 5 dilutions of the drug were added to duplicate wells. After an overnight incubation to equilibrate the pH, the lids were quickly taped around the edge to prevent evaporation. The plates were incubated for 5-7 days, until the controls were nearly confluent. Cell growth/morphology was scored at each dose visually (inverted microscope). The medium was then replaced by 50 μl fresh medium containing 2 u/Ci/ml [methyl-3H]-thymidine (5 Ci/mmol; Radiochemical Centre, Amersham, Bucks., U.K.) and incubated for 2-4 hr. The cells were washed with PBS (0.1 M NaCl, 50 mM phosphate, pH 7.2), detached with 100 μl of PBS containing 0.2 mg/ml trypsin and 10 mM EDTA, and washed onto a glass fibre GF/a filter mat with water using a cell harvester. Later, wells were checked under the microscope to ensure complete detachment and washout. Radioactivity was determined in an LKB Beta Plate counter and the results plotted as log % control cpm versus dose. The ID50 (dose required to give 50% survival) was interpolated from this survival curve.
as §1
The cytotoxicity assay used sulforhodamine B which stains the basic amino acids. Cells (5000 or 2500 for SKOV-3) were seeded into 96 well microtitre plates (Linbro, Flow Laboratories Inc., USA) in 0.1 ml of medium. After an overnight incubation, the metal phosphine compounds were dissolved in 0.9% NaCl or ethanol and diluted with medium, were added at concentrations ranging from 0.005 to 50 μM to quadruplicate wells. After 96 hrs incubation, the medium was removed and cells were fixed in 0.2 ml of cold 10% (w/v) trichloroacetic acid (May & Baker Ltd., Dagenham, England) for 30 mins at 4° C. The plates were washed five times with tap water. […]

[5] = system: tumour models in mice; details: reference EP0198696; cited from earlier work
[6] = system: PC9; assay: activity against cisplatin sensitive lung tumour PC9; type: cell-based, human; details: very preliminary data
Excerpt: In Table 1, JAM and CI-80-13S are ovarian tumours, HeLa is a cervical tumour and MM96 is a melanoma In Table 2, all the tumours are ovarian tumours. […] In this regard, PC9 is a lung tumour and its derivation is discussed in Hong et al., 1993, Cancer Research 53 3302-3307 and Bungo et al., 1990, Cancer Research 50 2549-2553.

IC50 ([6]; PC9 lung tumour): 25 µM
Compound: [Cl-].c1cc([P+]2(c3ccncc3)CC[P+](c3ccncc3)(c3ccncc3)[Au-3]23[P+](c2ccncc2)(c2ccncc2)CC[P+]3(c2ccncc2)c2ccncc2)ccn1 [[Au(d4pype)2]Cl]
activity in mice [1]: inactive | selectivity and cytotoxicity in ovarian cancer cell-lines (FIG. 5) [2]: exhibits the greatest selectivity killing only the CH1/CH1 cisR pair | activity in mice [3]: inactive | number of cell lines against which cytotoxic [4]: cytotoxic to only four of the nine cell-lines tested | degree of selectivity ([4]; Tables 1 and 2): the greatest selectivity | anti-tumour activity (EP0198696) [5]: insignificant anti-tumour activity | activity against PC9 ([6]; cisplatin sensitive lung tumour): modest activity
